The source of these data is patent US20140315850A1, “2',3'-Dideoxy-2'-alpha-Fluoro-2'-beta-C-Methylnucleosides and Prodrugs Thereof” (Nanjing Molecular Research, Inc., priority 2011, published 2014).

Each structure is given as a SMILES string.

Series [1] relates to HCV subgenomic genotype 1b replicon. Description: cell-based HCV replicon assay (luciferase reporter). Also noted: species or system hepatitis C virus (HCV). To be noted: for EC50: Hepatitis C virus, Huh-7 cells, genotype 1b replicon luc-ubi-neo, 48 h incubation, luciferase activity, read-out: EC50 (concentration of drug inhibiting HCV by 50%); for anti-HCV activity (in words): replicon assay, genotype 1b. The protocol: (§1) The anti-HCV activity and cytotoxicity of compounds disclosed herein were evaluated following patent method (WO/2007/027248).
(§2) The anti-HCV activity and toxicity of the exemplary compounds can be tested in two biological assays—a cell-based HCV replicon assay and cytotoxicity assay (WO 2007/027248).
A human hepatoma cell line (Huh-7) containing replicating HCV subgenomic genotype 1b replicon with a luciferase reporter gene (luc-ubi-neo) was used to evaluate anti-HCV activity of the compounds. In this assay, the level of luciferase signal correlates with the viral RNA replication directly. The HCV replicon-reporter cell line (NK/luc-ubi-neo) was cultured in DMEM medium supplemented with 10% fetal bovine serum and 0.5 mg/ml Geneticin (G418). Cells were maintained in a subconfluent state to ensure high levels of HCV replicon RNA synthesis.
To evaluate the antiviral activity of compounds, serial dilutions were prepared with concentrations ranging from 0.14 to 300 μM. Diluted compounds were transferred to a 96-well plate followed by the addition of replicon cells (6000 cells per well). Cells were incubated with the compounds for 48 h after which luciferase activity was measured. Reduction of luciferase signal reflected the decrease of HCV replicon RNA in the treated cells and used to determine the EC50 value (concentration which yielded a 50% reduction in luciferase activity).
Background: Replicon systems follow genome replication, usually without infectious particles.

The nature of series [2]: Cytotoxicity assay (LTR-luc luciferase reporter). The series is classed as cell-based, human. As to conditions: human; Huh-7 LTR-luc cells, luciferase activity; read-out: CC50 (concentration of drug inhibiting cellular growth by 50%). The procedure: as §1, §2
(§3) II. Cytotoxicity Assay A Huh-7 cell line carrying a luciferase reporter gene (driven by a HIV LTR promoter) stably integrated into the chromosome was used to analyze the cytotoxic effect of the selected compounds. This cell line (LTR-luc) was maintained in DMEM medium with 10% FBS. Design of the cytotoxicity assay was similar to that of the HCV replicon assay. Reduction of luciferase activity in the treated cells correlated with the cytotoxic effect of the test compound and was used to calculate the CC50 value (concentration that inhibited cell growth by 50%).
Background: A reporter such as luciferase makes a cellular process visible.

In series [3] the test system is Huh-7 cell line (LTR-luc). The series is described as follows: Cytotoxicity assay (LTR-luc luciferase reporter). The series is classed as cell-based, human. As to conditions: in vitro. The procedure: as §1, §2, §3

Take `COc1nc(N)nc2c1ncn2C1OC(CO)C[C@@]1(C)F` (some centres unmarked) [Compound 11]: in series [1], the EC50 was more than 100 µM. The CC50 in series [2] was more than 100 µM.
As to `COc1nc(N)nc2c1ncn2C1OC(COP(=O)(NCc2ccccc2)OCc2ccccc2C)C[C@@]1(C)F` (some centres unmarked) [Compound 17], in series [1], the EC50 is less than 1 µM and the “anti-HCV activity (in words)” value was “potent anti-HCV activity”. In series [2], the CC50 amounted to 52.2 µM. Also, the “cytotoxicity (in words)” value in series [3] was “without significant cytotoxicity”.
For `COC(=O)[C@H](C)NP(=O)(OCC1C[C@@](C)(F)C(n2cnc3c(OC)nc(N)nc32)O1)Oc1ccccc1` (some centres unmarked) [Compound 18] the same measures were less than 1 µM, “potent anti-HCV activity”, more than 100 µM and “without significant cytotoxicity”.
For `COc1nc(N)nc2c1ncn2C1OC(CO[P@@](=O)(N[C@@H](C)C(=O)OC2CCCC2)Oc2ccccc2)C[C@@]1(C)F` (some centres unmarked) [Compound 25] the same measures were 0.58 µM, “potent anti-HCV activity”, more than 100 µM and “without significant cytotoxicity”.
